Experimental data published in EP0885869A1, “THERAPEUTIC AGENT FOR DIABETES” (Japan Tobacco Inc., priority 1996, dated 1997).
Read-outs that look alike come from different tables or passages of the source.

Tests used:
fasted rats [1] = experiment: Glucose tolerance test using fasted rats; format: in vivo, Male Wistar rats; settings: for inhibition in vivo at 10 mg/kg / inhibition in vivo at 30 mg/kg / inhibition in vivo at 1 mg/kg / inhibition in vivo at 100 mg/kg: Rattus norvegicus, 30 min before glucose loading (1 g/kg i.p.); for inhibition in vivo at 10 mg/kg: dose 10 mg/kg oral; for inhibition in vivo at 30 mg/kg: dose 30 mg/kg oral; for inhibition in vivo at 1 mg/kg: dose 1 mg/kg oral; for inhibition in vivo at 100 mg/kg: dose 100 mg/kg oral; for blood glucose in hyperglycemia at 30 min after glucose loading / blood glucose level 120 min later when hyperglycemia was not observed: oral administration, versus control, Fig. 1 (Example 93), Fig. 2 (Example 65, various doses)
Protocol: Glucose tolerance test using fasted rats
Glucose (1 g/kg) was intraperitoneally administered and blood (0.2 ml) was taken at 30, 60 and 120 minutes later from the tail vein. […] As a control, used was carboxymethylcellulose. The suppression of increase in blood glucose was expressed by inhibition ratio (%) in the group administered with test drug, relative to the increase in blood glucose in the control group at 30 min after glucose loading, which was taken as 100%. The blood glucose after 120 min was also shown by the ratio (%) of changes relative to the control.

fasted rats [2] = experiment: Effects on blood glucose level of fasted rats; format: in vivo, Male Wistar rats; settings: oral administration to rats fasted for 16 hr, blood at 30, 60 and 120 minutes; Fig. 4
Protocol: Effects on blood glucose level of fasted rats
As a control, used was carboxymethylcellulose, and blood glucose after administration of tolbutamide and the compounds of the present invention was determined.

fasted rats [3] = system: fasted rats
[4] = 0.5 h, inhibition of increase in blood glucose relative to control at 30 min, read-out: ratio of decrease at 30 min later(%)
[5] = 2 h, blood glucose after 120 min, ratio of changes relative to control, read-out: ratio of decrease at 120 min later(%)

Row | SMILES | inhibition in vivo at 10 mg/kg (fasted rats [1]; [4]) | inhibition in vivo at 10 mg/kg (fasted rats [1]; [5]) | inhibition in vivo at 30 mg/kg (fasted rats [1]; [4]) | inhibition in vivo at 30 mg/kg (fasted rats [1]; [5]) | inhibition in vivo at 1 mg/kg (fasted rats [1]; [4]) | inhibition in vivo at 1 mg/kg (fasted rats [1]; [5]) | also measured
1 | O=C(O)CCC(=O)c1ccc(CO)cc1 [Example 49, 4-[4-(hydroxymethyl)phenyl]-4-oxobutanoic acid] | 25.2% | 2.2% | – | – | – | – | –
2 | CC(=O)CCC(=O)c1ccc(CO)cc1 [Example 20, 1-(4-hydroxymethylphenyl)-1,4-pentanedione] | – | – | 21.3% | 10.7% | – | – | –
3 | O=C(O)CCC(=O)c1ccccc1 [Example 46, 4-oxo-4-phenylbutanoic acid] | 19.8% | -7% | – | – | 22.5% | 10.3% | –
4 | O=C(CC(C(=O)O)C(=O)O)c1ccc(-c2ccccc2)cc1 [Example 69, 2-[2-(4-biphenylyl)-2-oxoethyl]propanedioic acid] | 24.6% | 3% | – | – | 22.1% | 4.9% | –
5 | O=C1CC(C(=O)c2ccccc2)CO1 (racemic) [Example 81, (±)-4-benzoyldihydro-2(3H)-furanone] | 20.7% | 6% | – | – | 23.7% | 1.7% | –
6 | CC1(C(=O)CCC(=O)O)CCCCC1 [Example 61, 4-(1-methylcyclohexyl)-4-oxobutanoic acid] | – | – | 31.5% | -5.7% | – | – | –
7 | O=C1CC(C(=O)c2ccc(-c3ccccc3)cc2)CO1 (racemic) [Example 82, (±)-dihydro-4-(4'-phenylbenzoyl)-2(3H)-furanone] | – | – | – | – | 24.6% | -8.2% | –
8 | O=C(O)CCC(=O)c1ccc(-c2ccccc2)cc1 [Example 47, 4-(4-biphenylyl)-4-oxobutanoic acid] | 20.7% | 4.7% | 29.1% | 6.8% | 26.5% | 14.7% | –
9 | CC(=O)NCC(=O)c1ccccc1 [Example 80, 2-acetaminoacetophenone] | 12.4% | -1.5% | – | – | 15.5% | -2.4% | –
10 | CC(=O)CCC(=O)c1ccccc1 [Example 1, 1-phenyl-1,4-pentanedione] | – | – | 18.9% | 4.1% | – | – | inhibition in vivo at 100 mg/kg (fasted rats [1]; [4]): 14.9%; inhibition in vivo at 100 mg/kg (fasted rats [1]; [5]): 1.1%
11 | CC1(C(=O)c2ccc(-c3ccccc3)cc2)CCC(=O)O1 (single isomer, unassigned; (-)) [Example 93, (-)-dihydro-5-methyl-5-(4'-phenylbenzoyl)-2(3H)-furanone] | – | – | – | – | – | – | blood glucose in hyperglycemia at 30 min after glucose loading (fasted rats [1]): significantly decreased the blood glucose; blood glucose level 120 min later when hyperglycemia was not observed (fasted rats [1]): did not unnecessarily lower the blood glucose level; fasting blood glucose (fasted rats [2]): did not lower the fasting blood glucose
12 | O=C(O)CCC(=O)C1CCCCC1 [Example 58, 4-cyclohexyl-4-oxobutanoic acid] | 26.1% | 4.8% | 26.7% | -2.8% | 12.5% | -0.9% | –
13 | CCCCNC(=O)NS(=O)(=O)c1ccc(C)cc1 [tolbutamide] | – | – | – | – | – | – | fasting blood glucose (fasted rats [2]): lowered the fasting blood glucose; effect as a therapeutic agent for diabetes for treating hyperglycemia (fasted rats [3]; oral, in the dose that does not cause hypoglycemia, Fig. 3): did not show effective results; blood glucose 120 min later (fasted rats [3]; rat, in vivo, po): induced hypoglycemia
14 | O=C(O)CCC(=O)c1ccc2ccccc2c1 [Example 74, 4-(2-naphthyl)-4-oxobutanoic acid] | 21.5% | -0.2% | – | – | – | – | –
15 | C[C@H]1CC[C@H](C(=O)CCC(=O)O)CC1 [Example 65, trans-4-(4-methylcyclohexyl)-4-oxobutanoic acid] | 31.7% | 5% | 41.2% | 10.5% | – | – | blood glucose in hyperglycemia at 30 min after glucose loading (fasted rats [1]): tends to show significant decrease in the blood glucose level; blood glucose level 120 min later when hyperglycemia was not observed (fasted rats [1]): does not unnecessarily lower the blood glucose level
16 | CC(=O)CCC(=O)c1ccc(-c2ccccc2)cc1 [Example 2, 1-(4-biphenylyl)-1,4-pentanedione] | – | – | – | – | – | – | inhibition in vivo at 100 mg/kg (fasted rats [1]; [4]): 29.7%; inhibition in vivo at 100 mg/kg (fasted rats [1]; [5]): 3.8%
17 | CC(=O)CCC(=O)C1CCCCC1 [Example 5, 1-cyclohexyl-1,4-pentanedione] | – | – | – | – | – | – | inhibition in vivo at 100 mg/kg (fasted rats [1]; [4]): 21.4%; inhibition in vivo at 100 mg/kg (fasted rats [1]; [5]): 7.3%
18 | CC(=O)CCC(=O)C1(C)CCCCC1 [Example 6, 1-(1-methyl-1-cyclohexyl)-1,4-pentanedione] | – | – | – | – | – | – | inhibition in vivo at 100 mg/kg (fasted rats [1]; [4]): 19.8%; inhibition in vivo at 100 mg/kg (fasted rats [1]; [5]): 15%
